Source: ChEMBL document CHEMBL1140941 (J Med Chem, 2009)
The source made the active and inactive calls. No cut-off for these calls is given here.

Tests used:
[1] = biological target: Estrogen receptor beta (Homo sapiens) (UniProt Q92731); assay: Agonist activity at gal-ERbeta expressed in african green monkey CV1 cells co-expressing MH100 by luciferase reporter gene assay; format: functional, cell-based; settings: CV-1
Progesterone receptor = Progesterone receptor (Homo sapiens, UniProt P06401); assay: Antagonist activity at gal-PR expressed in african green monkey CV1 cells co-expressing MH100 by luciferase reporter gene assay; format: functional, cell-based, CV-1
Sequence of Progesterone receptor (P06401 whole entry): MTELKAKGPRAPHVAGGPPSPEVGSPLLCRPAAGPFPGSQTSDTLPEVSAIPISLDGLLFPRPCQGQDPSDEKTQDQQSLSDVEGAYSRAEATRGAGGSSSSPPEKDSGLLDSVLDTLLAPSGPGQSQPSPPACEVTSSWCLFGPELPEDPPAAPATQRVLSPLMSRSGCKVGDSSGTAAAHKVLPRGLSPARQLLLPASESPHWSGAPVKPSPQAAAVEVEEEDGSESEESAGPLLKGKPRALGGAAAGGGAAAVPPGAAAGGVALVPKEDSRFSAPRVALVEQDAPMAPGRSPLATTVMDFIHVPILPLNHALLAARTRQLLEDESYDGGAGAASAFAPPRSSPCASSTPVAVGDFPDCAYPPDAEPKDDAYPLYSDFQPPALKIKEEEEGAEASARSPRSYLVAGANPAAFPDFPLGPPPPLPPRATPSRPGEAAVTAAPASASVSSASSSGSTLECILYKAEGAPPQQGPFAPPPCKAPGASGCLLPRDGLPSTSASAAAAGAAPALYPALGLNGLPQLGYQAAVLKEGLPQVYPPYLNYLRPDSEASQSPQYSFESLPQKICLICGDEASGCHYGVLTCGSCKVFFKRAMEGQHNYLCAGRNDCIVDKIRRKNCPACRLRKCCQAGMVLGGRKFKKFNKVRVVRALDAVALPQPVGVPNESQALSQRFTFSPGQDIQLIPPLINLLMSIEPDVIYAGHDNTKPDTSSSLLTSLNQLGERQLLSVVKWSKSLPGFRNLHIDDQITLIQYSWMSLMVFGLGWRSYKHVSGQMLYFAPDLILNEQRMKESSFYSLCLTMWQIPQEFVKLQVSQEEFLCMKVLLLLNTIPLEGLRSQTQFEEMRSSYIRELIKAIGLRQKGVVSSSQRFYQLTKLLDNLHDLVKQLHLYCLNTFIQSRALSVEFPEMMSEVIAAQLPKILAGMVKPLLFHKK

[2] = Tmax in CD rat at 3 mg/kg, iv; format: ADME, organism-based; set-up: dose 3 mg/kg, route intravenous; settings: in vivo
[3] = biological target: T1, Glucocorticoid receptor (Homo sapiens) (UniProt P04150); assay: Antagonist activity at gal-GR expressed in african green monkey CV1 cells co-expressing MH100 at 10 uM by luciferase reporter gene assay; format: functional, cell-based; settings: CV-1
T1 sequence (whole entry): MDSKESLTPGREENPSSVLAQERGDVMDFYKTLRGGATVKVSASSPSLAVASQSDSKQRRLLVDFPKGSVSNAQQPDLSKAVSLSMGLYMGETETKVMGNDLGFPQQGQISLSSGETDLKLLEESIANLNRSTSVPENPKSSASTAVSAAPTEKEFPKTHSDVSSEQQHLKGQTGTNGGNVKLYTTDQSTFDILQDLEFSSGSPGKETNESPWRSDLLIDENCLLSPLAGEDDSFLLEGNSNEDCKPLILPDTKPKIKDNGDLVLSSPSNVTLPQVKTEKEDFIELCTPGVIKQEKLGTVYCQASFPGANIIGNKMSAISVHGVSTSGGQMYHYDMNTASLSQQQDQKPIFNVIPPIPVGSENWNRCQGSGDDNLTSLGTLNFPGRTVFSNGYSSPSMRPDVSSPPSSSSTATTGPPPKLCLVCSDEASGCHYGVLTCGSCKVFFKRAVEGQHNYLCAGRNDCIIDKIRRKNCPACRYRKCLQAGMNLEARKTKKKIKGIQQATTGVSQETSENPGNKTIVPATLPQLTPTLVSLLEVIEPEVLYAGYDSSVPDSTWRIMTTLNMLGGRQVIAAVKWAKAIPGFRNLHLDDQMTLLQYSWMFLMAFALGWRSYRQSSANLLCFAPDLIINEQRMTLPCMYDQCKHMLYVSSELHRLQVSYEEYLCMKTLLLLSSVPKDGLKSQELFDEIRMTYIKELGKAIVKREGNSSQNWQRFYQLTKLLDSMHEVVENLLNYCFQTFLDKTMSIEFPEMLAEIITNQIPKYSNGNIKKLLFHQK

[4] = biological target: T2, Peroxisome proliferator-activated receptor gamma (Homo sapiens) (UniProt P37231); assay: Antagonist activity at PPARgamma expressed in african green monkey CV1 cells co-expressing PPRE by luciferase reporter gene assay; format: functional, cell-based; settings: CV-1
T2 sequence (whole entry): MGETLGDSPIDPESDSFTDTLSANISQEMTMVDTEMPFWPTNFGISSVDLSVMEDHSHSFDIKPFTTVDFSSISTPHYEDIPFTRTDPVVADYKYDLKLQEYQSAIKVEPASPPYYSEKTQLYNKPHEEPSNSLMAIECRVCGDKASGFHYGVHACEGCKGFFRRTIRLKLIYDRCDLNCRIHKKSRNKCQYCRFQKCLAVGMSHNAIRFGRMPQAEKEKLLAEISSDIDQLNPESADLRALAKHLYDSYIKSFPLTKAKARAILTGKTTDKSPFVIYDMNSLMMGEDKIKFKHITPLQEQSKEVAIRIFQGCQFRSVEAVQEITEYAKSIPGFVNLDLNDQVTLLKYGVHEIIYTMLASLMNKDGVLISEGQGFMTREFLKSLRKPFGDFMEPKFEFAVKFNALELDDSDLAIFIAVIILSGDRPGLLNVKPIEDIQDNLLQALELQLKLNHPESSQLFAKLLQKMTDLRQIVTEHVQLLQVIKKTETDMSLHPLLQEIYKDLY

Estrogen receptor = Estrogen receptor (Homo sapiens, UniProt P03372); assay: Antagonist activity at gal-ERalpha expressed in african green monkey CV1 cells co-expressing MH100 by luciferase reporter gene assay; format: functional, cell-based, CV-1
Sequence of Estrogen receptor (P03372 whole entry): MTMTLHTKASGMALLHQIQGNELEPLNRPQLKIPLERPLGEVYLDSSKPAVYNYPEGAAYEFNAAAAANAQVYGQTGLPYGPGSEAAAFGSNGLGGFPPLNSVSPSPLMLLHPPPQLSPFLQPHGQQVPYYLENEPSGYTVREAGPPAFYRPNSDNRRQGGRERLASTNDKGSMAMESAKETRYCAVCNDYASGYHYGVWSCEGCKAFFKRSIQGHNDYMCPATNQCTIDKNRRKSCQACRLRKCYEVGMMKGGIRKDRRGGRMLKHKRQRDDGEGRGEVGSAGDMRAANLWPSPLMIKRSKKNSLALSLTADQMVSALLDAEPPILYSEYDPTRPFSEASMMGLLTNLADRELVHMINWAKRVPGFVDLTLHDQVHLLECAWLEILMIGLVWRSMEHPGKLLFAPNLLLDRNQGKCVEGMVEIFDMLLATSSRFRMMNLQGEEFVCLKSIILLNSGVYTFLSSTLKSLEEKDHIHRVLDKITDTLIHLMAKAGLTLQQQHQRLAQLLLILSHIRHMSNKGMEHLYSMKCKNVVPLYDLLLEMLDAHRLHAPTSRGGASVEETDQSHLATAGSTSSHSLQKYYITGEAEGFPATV

[5] = biological target: T1, Glucocorticoid receptor (Homo sapiens); assay: Agonist activity at gal-GR expressed in african green monkey CV1 cells co-expressing MH100 by luciferase reporter gene assay; format: functional, cell-based; settings: CV-1
[6] = biological target: T2, Peroxisome proliferator-activated receptor gamma (Homo sapiens); assay: Agonist activity at PPARgamma expressed in african green monkey CV1 cells co-expressing PPRE up to 10 uM by luciferase reporter gene assay relative to control; format: functional, cell-based; settings: CV-1
[7] = biological target: Steroid hormone receptor ERR2 (Homo sapiens) (UniProt O95718); assay: Antagonist activity at ERRbeta expressed in african green monkey CV1 cells by luciferase reporter gene assay; format: functional, cell-based; settings: CV-1
Sequence of Steroid hormone receptor ERR2 (Homo sapiens) (O95718 whole entry): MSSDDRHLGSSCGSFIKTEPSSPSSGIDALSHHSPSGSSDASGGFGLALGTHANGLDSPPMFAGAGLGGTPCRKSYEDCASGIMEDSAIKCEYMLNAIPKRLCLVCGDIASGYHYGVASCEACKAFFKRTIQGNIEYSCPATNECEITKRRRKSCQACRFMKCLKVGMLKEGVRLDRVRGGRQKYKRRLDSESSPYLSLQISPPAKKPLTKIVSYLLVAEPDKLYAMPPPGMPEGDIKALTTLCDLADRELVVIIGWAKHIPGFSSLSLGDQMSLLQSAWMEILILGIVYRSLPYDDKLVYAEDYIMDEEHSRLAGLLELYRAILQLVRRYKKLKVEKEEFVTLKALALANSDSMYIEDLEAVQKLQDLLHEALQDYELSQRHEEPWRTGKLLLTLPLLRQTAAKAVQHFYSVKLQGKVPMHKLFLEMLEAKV

[8] = Half life in CD rat at 3 mg/kg, iv; format: ADME, organism-based; set-up: dose 3 mg/kg, route intravenous; settings: in vivo
[9] = biological target: T1, Glucocorticoid receptor (Homo sapiens); assay: Agonist activity at gal-GR expressed in african green monkey CV1 cells co-expressing MH100 up to 10 uM by luciferase reporter gene assay relative to control; format: functional, cell-based; settings: CV-1
[10] = biological target: T3, Androgen receptor (Homo sapiens) (UniProt P10275); assay: Agonist activity at human gal-AR expressed in african green monkey CV1 cells co-expressing MH100 with pGRIP1 co-factor up to 10 uM by luciferase reporter gene assay relative to control; format: functional, cell-based; settings: CV-1
T3 sequence (whole entry): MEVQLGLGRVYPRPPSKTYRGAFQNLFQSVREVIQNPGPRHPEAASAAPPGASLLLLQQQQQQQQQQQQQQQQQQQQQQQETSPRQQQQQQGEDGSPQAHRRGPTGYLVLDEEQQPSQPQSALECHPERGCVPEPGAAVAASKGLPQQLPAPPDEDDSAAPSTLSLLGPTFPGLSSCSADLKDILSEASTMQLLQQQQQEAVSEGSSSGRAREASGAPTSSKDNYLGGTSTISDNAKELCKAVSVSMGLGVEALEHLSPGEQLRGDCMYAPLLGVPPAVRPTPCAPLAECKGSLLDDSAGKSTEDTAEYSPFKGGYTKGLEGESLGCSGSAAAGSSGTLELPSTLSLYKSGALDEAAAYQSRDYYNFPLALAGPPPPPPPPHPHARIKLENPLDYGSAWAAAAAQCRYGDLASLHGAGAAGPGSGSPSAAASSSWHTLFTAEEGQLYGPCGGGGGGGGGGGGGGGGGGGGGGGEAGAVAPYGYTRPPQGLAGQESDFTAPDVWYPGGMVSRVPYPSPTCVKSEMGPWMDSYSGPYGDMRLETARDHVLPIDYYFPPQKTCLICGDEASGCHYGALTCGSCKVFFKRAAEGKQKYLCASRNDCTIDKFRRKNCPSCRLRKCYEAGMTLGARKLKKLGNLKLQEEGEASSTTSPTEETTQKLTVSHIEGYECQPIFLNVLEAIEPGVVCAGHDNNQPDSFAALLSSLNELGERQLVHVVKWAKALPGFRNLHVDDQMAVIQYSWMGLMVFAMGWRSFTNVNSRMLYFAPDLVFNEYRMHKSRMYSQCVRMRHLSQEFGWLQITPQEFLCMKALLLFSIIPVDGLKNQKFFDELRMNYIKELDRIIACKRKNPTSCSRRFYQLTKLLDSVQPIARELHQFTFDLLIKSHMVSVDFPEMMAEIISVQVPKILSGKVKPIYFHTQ

Sequence of Estrogen receptor beta (Homo sapiens) (Q92731 whole entry): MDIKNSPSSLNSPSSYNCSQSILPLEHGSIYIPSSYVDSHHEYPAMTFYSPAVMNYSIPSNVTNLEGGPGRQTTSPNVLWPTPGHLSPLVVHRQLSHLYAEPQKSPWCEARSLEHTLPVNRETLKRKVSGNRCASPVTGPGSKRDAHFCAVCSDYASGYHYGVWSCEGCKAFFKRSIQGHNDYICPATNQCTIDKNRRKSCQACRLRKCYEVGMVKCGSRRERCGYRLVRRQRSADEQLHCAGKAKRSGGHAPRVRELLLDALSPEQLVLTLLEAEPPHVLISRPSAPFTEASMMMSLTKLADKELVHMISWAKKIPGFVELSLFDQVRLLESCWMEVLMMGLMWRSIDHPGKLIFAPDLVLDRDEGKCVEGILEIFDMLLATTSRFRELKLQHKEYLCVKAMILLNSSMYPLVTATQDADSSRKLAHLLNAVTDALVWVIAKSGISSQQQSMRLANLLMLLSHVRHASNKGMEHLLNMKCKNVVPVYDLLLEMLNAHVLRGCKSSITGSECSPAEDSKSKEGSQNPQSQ

Activity [1]: inactive
IC50 (Progesterone receptor): 10 µM
Tmax [2]: 1.2 min
inhibition [3]: 35%
Activity [4]: inactive
IC50 (Estrogen receptor): 10 µM
Activity [5]: inactive
Activity [6]: inactive
Activity [7]: inactive
half-life [8]: 40.1 h
Activity [9]: inactive
Activity [10]: inactive
SMILES: CC(C)OC(=O)C1=CN(C(=O)c2ccc(F)c(F)c2)CC(C)(C)c2c1[nH]c1ccccc21 [TUROFEXORATE ISOPROPYL]
